Data reported in US6150414A, “Compositions and methods for treating viral infections” (priority 1992, dated 2000).
“And” between values parts separate entries of the source, which are not always exact repeats. Identical values can stand only once. Like-named read-outs stand apart in the source and are kept apart here.

System: Friend Leukemia Virus
Test: Inhibition of Friend Leukemia Virus-induced splenomegaly in mice, compounds intraperitoneally 24 hours after virus (Example 1(a))
Type: in vivo, BALB/c mice
Design: Actual Spleen Weight / Average Spleen Weight: unit not given here
Settings: Table III; for inhibition in vivo at 0.1 mg / inhibition in vivo at 0.05 mg / inhibition in vivo at 0.2 mg: Mus musculus, ip; for Pooled Average % Inhibition: pooled over 50, 100, 200, 2 × 100 micrograms; for Actual Spleen Weight: single animal
Source text: The effects of compositions according to the present invention on infection of mammals with Friend Leukemia Virus (FV) were examined.
Friend Leukemia Virus is an aggressive retrovirus which induces an acute erythroleukemia in sensitive strains of mice such as BALB/c and NIH swiss mice as described in Friend, C. J., Exp. Med. 105: 307-324, 1957; Friend, C. et al. Proc. Natl. Acad. Sci. USA 68: 378-383, 1971; Friend, C. et al. Natl. Cancer Inst. Mongr. 22: 508-552, 1966. The malignant transformation is the result of the combined activities of the Spleen Focus Forming Virus (SFFV) and the ecotropic Murine Friend Leukemia Helper Virus (F-MuLV). The acute erythroleukemia is characterized by hepatosplenomegaly (a marked increase in the size of the spleen and liver) and a severe anemia.
Friend Leukemia Virus was prepared by homogenizing the enlarged spleen of a mouse previously infected with FV, 10 days after intravenous virus injection. The spleen was homogenized in phosphate buffered saline in a volume equal to ten times the weight of the isolated spleen.
The effects of compositions according to the present invention on the increase in spleen size (splenomegaly) of BALB/c mice (Jackson Labs, Bar Harbor, ME) was examined. In these experiments, the virus (10^6 focus forming units--FFU) was inoculated intravenously and 100 micrograms of the compounds indicated in Table II were administered to the mice intraperitoneally 24 hours later. Each compound was administered once to two mice. The animals were sacrificed ten days later and their spleens weighed.
The present assay has been developed from similar assays using hypericin or pseudohypericin and employing higher numbers of experimental animals per group (e.g. 4 animals). It was discovered however that the specificity and sensitivity of this assay are such that an experimental group of two animals is of more than adequate predictive value.
As used in Table II (and subsequent Tables of this Example l(a) and (b), "average percent inhibition" is calculated as follows: [formula] wherein "ASWNC" designates "average spleen weight of negative control"; "ASWE" designates "average spleen weight of experimental (treated) subject"; and "ASWPC" designates "average spleen weight of positive control". Average spleen weight is the numerical average of spleen weights of each experimental group (in Table II each such group includes two members).
In these experiments, the virus (10^6 focus forming units--FFU) was inoculated intravenously, and the indicated doses of the antiviral compounds of this invention were administered to the BALB/c mice intraperitoneally 24 hours later. The animals were then sacrificed ten days later and their spleens weighed.
Pseudohypericin was diluted in phosphate buffered saline with 1% ethanol.
An expanded series of experiments was next performed in which various concentrations (i.e. 50, 100, 200 and 2×100, i.e., 100 micrograms administered twice) of a different set of PAC compounds (numbers 16-29 and 30-36 in Table III below) were administered intraperitoneally each according to the same protocol described above. Compounds 16-29 all had 3-5 fused, aromatic rings and no side groups except for oxygen or hydroxyl groups, whereas compounds 30-36 all had 3 fused aromatic rings and side chains selected from the group of oxygen, hydroxyl and methyl.
When 2 doses of the compounds were given, the second dose was administered 24-48 hours after the first injection. The animals were infected and splenomegaly determined as above for the compounds in Table II. In Table III, "pooled average percent inhibition" is calculated by adding the average percent inhibition for each experiment with the same compound and dividing the sum by the number of experiments (i.e. the number 4). […]

[1] = read-out: Average Perdosage % Inhibition, dose 2 × 100 (micrograms) i.p.
[2] = read-out: Average Perdosage % Inhibition, dose 50 (micrograms) i.p.
[3] = read-out: Average Perdosage % Inhibition, dose 100 (micrograms) i.p.
[4] = read-out: Average Perdosage % Inhibition, dose 200 (micrograms) i.p.
[5] = dose 2 × 100 (micrograms) i.p., read-out: Average Perdosage % Inhibition
[6] = dose 50 (micrograms) i.p., read-out: Average Perdosage % Inhibition
[7] = dose 100 (micrograms) i.p., read-out: Average Perdosage % Inhibition
[8] = dose 200 (micrograms) i.p., read-out: Average Perdosage % Inhibition
[9] = dose 2 × 100 (micrograms) i.p., second dose 24-48 hours later

Compound | inhibition in vivo at 0.1 mg [1] [%] | inhibition in vivo at 0.05 mg [2] [%] | inhibition in vivo at 0.1 mg [3] [%] | inhibition in vivo at 0.2 mg [4] [%] | Average Spleen Weight (dose 2 × 100 (micrograms) i.p.) | Average Spleen Weight (dose 50 (micrograms) i.p.) | Average Spleen Weight (dose 100 (micrograms) i.p.) | Average Spleen Weight (dose 200 (micrograms) i.p.) | Pooled Average % Inhibition [%] | inhibition in vivo at 0.1 mg [5] [%] | inhibition in vivo at 0.05 mg [6] [%] | inhibition in vivo at 0.1 mg [7] [%] | inhibition in vivo at 0.2 mg [8] [%] | further results
c1ccc(-c2c3ccccc3c(-c3ccccc3)c3ccccc23)cc1 [Compound 22, 9,10-Diphenylanthracene] | 13 | 41 | 5 | 0 | 1.4120 | 0.9936 | 1.5171 | 1.5913 | 15 | – | – | – | – | –
c1cc2c3c(ccc4c3c1CCC4)CCC2 [Compound 23, 1,2,3,6,7,8-Hexahydropyrene] | – | – | – | – | 1.1281 | 1.2092 | 1.5131 | 1.0961 | 25 | 32 | 26 | 6 | 34 | –
O=C1C(c2ccccc2)=C(c2ccccc2)C(c2ccccc2)=C1c1ccccc1 [Compound 24, Tetraphenylcyclo pentadienone] | – | – | – | – | 1.2437 | 1.2959 | 1.3940 | 1.5070 | 16 | 24 | 20 | 14 | 6 | –
Cc1ccc2cc3ccccc3cc2c1 [Compound 25, 2-Methylanthracene] | 29 | 26 | 37 | 28 | 1.1758 | 1.2104 | 1.0606 | 1.1904 | 30 | – | – | – | – | –
c1ccc(C2=C(c3ccccc3)C(c3ccccc3)=C(c3ccccc3)C2)cc1 [Compound 26, 1,2,3,4-Tetraphenyl-1,3-cyclopentadiene] | – | – | – | – | 1.5966 | 1.1985 | 1.0280 | 1.1131 | 25 | 0 | 27 | 39 | 33 | –
c1cc2cccc3c4cccc5cccc(c(c1)c23)c54 [Compound 27, Perylene] | 11 | 19 | 5 | 1 | 1.4342 | 1.3148 | 1.5227 | 1.6044 | 9 | – | – | – | – | –
c1ccc2cc3cc4cc5ccccc5cc4cc3cc2c1 [Compound 28, Pentacene] | – | – | – | – | 1.4102 | 1.2780 | 1.5384 | 1.4278 | 12 | 13 | 22 | 4 | 11 | –
C=Cc1c2ccccc2cc2ccccc12 [Compound 29, 9-Vinylanthracene] | 15 | 4 | 26 | 21 | 1.3747 | 1.6517 | 1.2199 | 1.2933 | 14 | – | – | – | – | Actual Spleen Weight [9]: 1.3747; Actual Spleen Weight (dose 200 (micrograms) i.p.): 1.2933
O=c1c2ccccc2oc2ccccc12 [Compound 31, Xanthone] | 62 | 57 | 58 | 60 | 0.9003 | 1.0006 | 0.9806 | 0.9431 | 59 | – | – | – | – | –
O=C1c2ccc(O)cc2C(=O)c2ccc(O)cc21 [Compound 32, Anthraflavic acid] | – | – | – | – | 0.9325 | 1.5718 | 1.1542 | 0.8593 | 50 | 60 | 26 | 49 | 64 | –
O=C1c2ccccc2C(=O)C1c1ccccc1 [Compound 33, 2-phenyl-1,2 inadione] | – | – | – | – | 0.9127 | 0.9410 | 1.7763 | 0.7938 | 51 | 61 | 60 | 16 | 68 | –
Phenylanthracene [Compound 18] | – | – | – | – | 1.2169 | 1.1803 | 1.554 | 1.3296 | 19 | – | – | – | – | Actual Spleen Weight [9]: 1.4116 and 1.0222; Average Perdosage % Inhibition (dose 2 × 100 (micrograms) i.p.): 26%; Average Perdosage % Inhibition (dose 50 (micrograms) i.p.): 28%; Actual Spleen Weight (dose 50 (micrograms) i.p.): 1.1141 and 1.2464; Average Perdosage % Inhibition (dose 100 (micrograms) i.p.): 3%; Actual Spleen Weight (dose 100 (micrograms) i.p.): 1.6206 and 1.4902; Average Perdosage % Inhibition (dose 200 (micrograms) i.p.): 18%; Actual Spleen Weight (dose 200 (micrograms) i.p.): 1.3797 and 1.2794
